This passage reports IC50, EC50 and AC50 results from ChEMBL document CHEMBL1201862, “PubChem BioAssay data set” (2004).

In general, IC50 refers to the concentration at which inhibition is half-maximal. For orientation: EC50 means the concentration that produces a half-maximal response. Usually AC50 stands for the midpoint of the concentration-response curve, whichever way the signal moves.

In test [1] the target is Sphingosine 1-phosphate receptor 2 (Homo sapiens, UniProt O95136). Kind of test: Dose Response Cell Based Assay for Antagonists of the S1P2 Receptor. [Related pubchem assays: 856, 736 ]. Type of test: functional.
Sphingosine 1-phosphate receptor 2, sequence (O95136 whole entry): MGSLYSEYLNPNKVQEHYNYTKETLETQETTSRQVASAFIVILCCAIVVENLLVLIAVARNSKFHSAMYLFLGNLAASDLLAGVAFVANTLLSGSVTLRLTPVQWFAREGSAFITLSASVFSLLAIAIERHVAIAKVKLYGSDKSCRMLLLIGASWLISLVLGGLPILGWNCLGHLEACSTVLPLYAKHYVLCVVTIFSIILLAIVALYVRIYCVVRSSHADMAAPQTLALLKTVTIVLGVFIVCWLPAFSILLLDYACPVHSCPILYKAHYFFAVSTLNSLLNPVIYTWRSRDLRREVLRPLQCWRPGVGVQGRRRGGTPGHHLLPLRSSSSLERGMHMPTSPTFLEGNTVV
Test [2] can be described thus: cytotoxicity in HEK-293T cells, dose response, cytotoxicity control for BCR NF-kB inhibitor project, luminescence, B-cell screen hits (AID 489021).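 Further: HEK-293T cells carrying an NF-kB luciferase reporter; cells exposed to compound for about 14 hours before viability readout.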 Format: functional, cell-based.
Test [3] can be described thus: Luminescence Cell-Based Dose Confirmation HTS to Identify Inhibitors of Polyadenylation. Format: functional.
The target in a further test is T1, Estrogen receptor (Homo sapiens, UniProt P03372).
T1 sequence (P03372 whole entry): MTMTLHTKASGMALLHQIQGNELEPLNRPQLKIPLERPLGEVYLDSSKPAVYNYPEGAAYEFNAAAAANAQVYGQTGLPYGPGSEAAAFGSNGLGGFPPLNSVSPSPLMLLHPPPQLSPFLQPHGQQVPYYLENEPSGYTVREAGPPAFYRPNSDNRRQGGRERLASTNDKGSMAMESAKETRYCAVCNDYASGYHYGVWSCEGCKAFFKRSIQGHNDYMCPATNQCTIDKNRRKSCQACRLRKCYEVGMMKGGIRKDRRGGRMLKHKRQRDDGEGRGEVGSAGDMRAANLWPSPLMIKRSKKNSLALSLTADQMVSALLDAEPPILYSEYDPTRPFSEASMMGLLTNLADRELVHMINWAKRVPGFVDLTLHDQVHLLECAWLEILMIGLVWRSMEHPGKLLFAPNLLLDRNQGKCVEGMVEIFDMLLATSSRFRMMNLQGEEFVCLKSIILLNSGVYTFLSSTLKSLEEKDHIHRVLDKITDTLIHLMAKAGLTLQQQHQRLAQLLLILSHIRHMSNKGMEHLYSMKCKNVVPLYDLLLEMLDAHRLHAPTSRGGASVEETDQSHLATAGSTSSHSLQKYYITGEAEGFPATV

The subject of another test is Escherichia coli. Description: microbe, parasite or virus in culture.
A short description of test [4]: inhibitors of Vif binding to APOBEC3G peptide, primary screen, biochemical, TR-FRET, GST-Vif 1-94, biotin-A3G peptide, dose response retest (AID 1117319).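 Further: TR-FRET signal of purified GST-Vif binding a biotinylated A3G peptide; inhibitors lower the FRET signal by blocking Vif and A3G binding.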 Format: functional.
The target in a further test is T2, Galanin receptor type 3 (Homo sapiens, UniProt O60755).
T2 sequence (O60755 whole entry): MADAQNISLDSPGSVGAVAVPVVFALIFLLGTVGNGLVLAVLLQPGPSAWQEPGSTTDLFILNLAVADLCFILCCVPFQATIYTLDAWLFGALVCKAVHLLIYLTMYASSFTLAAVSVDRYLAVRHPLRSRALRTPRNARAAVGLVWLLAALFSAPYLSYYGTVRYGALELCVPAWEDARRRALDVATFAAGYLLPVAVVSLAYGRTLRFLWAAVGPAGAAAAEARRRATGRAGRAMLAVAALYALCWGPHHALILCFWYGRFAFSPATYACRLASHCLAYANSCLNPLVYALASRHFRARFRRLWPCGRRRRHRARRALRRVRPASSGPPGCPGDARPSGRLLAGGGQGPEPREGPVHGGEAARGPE
Kind of test: Fluorescence-based cell-based primary high throughput dose response assay to identify antagonists of the Galanin Receptor 3 (GalR3). Type of test: functional.

A short description of a further test: cells. Format: functional, cell-based. Conditions: HEK-CNG.
The nature of test [5]: Shn3 3'UTR reporter inhibitors, dose response, cell-based, Clone20 osteoblasts, firefly luciferase, cherry-picked (AID 624132).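 Further: firefly luciferase luminescence from reporter carrying the Shn3 3'UTR in osteoblasts.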 Type of test: functional.
A short description of test [6]: HepG2 cell cytotoxicity, dose response, cytotoxicity control for Shn3 inhibitor project, CellTiter-Glo, cherry-picked (AID 624134). Type of test: functional, cell-based. A general note: ATP-based viability assays read luminescence as a measure of living cells.
Test [7] can be described thus: control 3'UTR Renilla luciferase suppression, dose response, counter-screen for Shn3 inhibitor project, cell-based, Clone20-Shn3RL, cherry-picked (AID 624133). Format: functional. A general note: A counterscreen serves to expose hits that act by an unwanted route or on another target.
The target in test [8] is T3, Histone-lysine N-methyltransferase NSD2 (Homo sapiens, UniProt O96028).
T3 sequence (O96028 whole entry): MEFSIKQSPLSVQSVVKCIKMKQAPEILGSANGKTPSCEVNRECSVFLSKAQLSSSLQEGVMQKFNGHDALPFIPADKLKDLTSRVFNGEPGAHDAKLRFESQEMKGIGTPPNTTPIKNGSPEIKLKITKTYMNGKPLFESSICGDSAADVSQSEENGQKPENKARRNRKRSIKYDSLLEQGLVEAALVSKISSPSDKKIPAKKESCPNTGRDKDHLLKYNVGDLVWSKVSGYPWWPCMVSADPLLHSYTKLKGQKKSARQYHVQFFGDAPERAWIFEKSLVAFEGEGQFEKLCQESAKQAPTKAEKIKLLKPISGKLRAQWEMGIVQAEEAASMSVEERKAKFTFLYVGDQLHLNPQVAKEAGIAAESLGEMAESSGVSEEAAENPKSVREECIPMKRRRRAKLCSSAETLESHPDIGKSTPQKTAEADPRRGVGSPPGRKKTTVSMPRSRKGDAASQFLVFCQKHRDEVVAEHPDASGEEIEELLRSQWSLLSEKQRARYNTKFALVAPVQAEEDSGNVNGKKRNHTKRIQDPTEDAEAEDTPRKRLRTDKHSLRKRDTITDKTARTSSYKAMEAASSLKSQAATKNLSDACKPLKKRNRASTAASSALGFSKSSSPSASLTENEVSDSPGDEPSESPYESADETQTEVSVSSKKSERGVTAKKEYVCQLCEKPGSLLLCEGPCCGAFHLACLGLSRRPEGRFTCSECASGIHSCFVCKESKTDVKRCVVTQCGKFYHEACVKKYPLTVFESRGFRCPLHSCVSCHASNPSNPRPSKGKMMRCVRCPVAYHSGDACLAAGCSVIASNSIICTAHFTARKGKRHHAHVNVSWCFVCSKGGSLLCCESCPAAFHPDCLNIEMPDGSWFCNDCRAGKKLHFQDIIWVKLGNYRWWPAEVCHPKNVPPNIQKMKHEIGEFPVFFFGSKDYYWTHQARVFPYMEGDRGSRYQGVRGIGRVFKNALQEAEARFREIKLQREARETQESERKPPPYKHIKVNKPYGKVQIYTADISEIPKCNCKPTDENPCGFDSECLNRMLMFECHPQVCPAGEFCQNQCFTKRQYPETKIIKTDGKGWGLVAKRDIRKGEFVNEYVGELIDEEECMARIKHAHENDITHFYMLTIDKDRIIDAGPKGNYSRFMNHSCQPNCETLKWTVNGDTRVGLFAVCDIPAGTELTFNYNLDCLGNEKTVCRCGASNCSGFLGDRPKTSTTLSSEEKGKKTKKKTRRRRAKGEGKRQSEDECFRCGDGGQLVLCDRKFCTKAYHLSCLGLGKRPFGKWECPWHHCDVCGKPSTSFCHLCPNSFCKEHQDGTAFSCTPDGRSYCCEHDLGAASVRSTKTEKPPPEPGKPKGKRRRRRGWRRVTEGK
Format: biochemical.

Test [9] concerns the target Mitogen-activated protein kinase 10 (Homo sapiens, UniProt P53779). Kind of test: Dose response biochemical screening assay for inhibitors of c-Jun N-Terminal Kinase 3 (JNK3). [Related pubchem assays: 746 ].
Test [10] in a line: A549 cell cytotoxicity, dose response, cytotoxicity control, plate reader, cherry-pick, antagonist series (AID 743412). Format: functional, cell-based.
In the next test the test system is Cryptococcus neoformans. Description: PubChem AID 686997. Type of test: functional, organism-based. The note with it: Cryptococcus neoformans.
In a further test the test system is HEK293. Kind of test: HEK293T cell cytotoxicity, dose response, cytotoxicity control, ATP luminescence, cherry-pick samples (AID 687005).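 Further: cells exposed to compound for 48 hours.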 Type of test: functional, cell-based. The note with it: Homo sapiens.
Test [11] in a line: HEK293 Cytotoxicity Assay Measured in Cell-Based System Using Plate Reader - 7071-01_Inhibitor_Dose_CherryPick_Activity_Set2. Format: functional.
For another test, the system named is HeLa. Description: HeLa cell cytotoxicity, dose response, cytotoxicity control, ATP luminescence, cherry-pick samples (AID 687004). Conditions: Homo sapiens. Format: functional, cell-based.
Test [12] concerns the target Voltage-gated N-type calcium channel alpha-1B subunit/Amyloid beta A4 precursor protein-binding family A member 1 (Homo sapiens, UniProt Q00975+Q02410). Type of test: protein assay.
The target in test [13] is Disintegrin and metalloproteinase domain-containing protein 17 (Homo sapiens, UniProt P78536). Description: exosite inhibitors of ADAM17, dose response, biochemical (AID 743260).
Disintegrin and metalloproteinase domain-containing protein 17, sequence (P78536 whole entry, the tested form may be a part): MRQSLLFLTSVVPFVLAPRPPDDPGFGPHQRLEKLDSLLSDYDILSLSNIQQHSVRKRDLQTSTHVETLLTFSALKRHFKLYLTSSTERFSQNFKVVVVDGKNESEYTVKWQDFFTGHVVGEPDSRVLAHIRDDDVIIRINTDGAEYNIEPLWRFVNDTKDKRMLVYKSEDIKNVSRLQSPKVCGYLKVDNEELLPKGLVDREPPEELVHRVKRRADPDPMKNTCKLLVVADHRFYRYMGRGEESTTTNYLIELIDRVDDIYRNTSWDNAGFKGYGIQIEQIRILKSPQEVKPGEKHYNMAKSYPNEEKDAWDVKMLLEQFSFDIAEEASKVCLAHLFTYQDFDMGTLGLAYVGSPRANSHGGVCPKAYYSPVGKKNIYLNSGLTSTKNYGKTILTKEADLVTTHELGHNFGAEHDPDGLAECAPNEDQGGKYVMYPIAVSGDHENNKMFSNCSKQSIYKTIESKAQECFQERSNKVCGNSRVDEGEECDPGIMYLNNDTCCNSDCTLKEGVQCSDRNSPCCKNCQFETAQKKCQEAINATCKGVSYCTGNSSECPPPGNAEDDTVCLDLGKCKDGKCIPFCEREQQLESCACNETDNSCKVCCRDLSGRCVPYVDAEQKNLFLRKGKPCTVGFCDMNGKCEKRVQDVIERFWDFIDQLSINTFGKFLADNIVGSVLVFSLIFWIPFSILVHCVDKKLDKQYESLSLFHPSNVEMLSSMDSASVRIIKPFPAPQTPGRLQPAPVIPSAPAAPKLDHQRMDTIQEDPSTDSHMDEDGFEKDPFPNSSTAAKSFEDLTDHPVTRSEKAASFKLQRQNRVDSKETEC
Test [14] in a line: ADAM10 protease inhibitors, dose response, selectivity assay for ADAM17 exosite inhibitor project, biochemical, FRET peptide substrate, recombinant human ADAM10 (AID 743259).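 Further: ADAM10 enzyme cleaving a FRET peptide substrate.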
The target of the next test is Estrogen receptor beta (Homo sapiens, UniProt Q92731). Description: ERβ–SRC-3 coactivator interaction inhibitors, confirmation, orthogonal assay, biochemical, ELISA, streptavidin-HRP readout (AID 1060). On the technique in general: In an ELISA, binding on a coated surface is turned into a signal by an enzyme label.
The target of test [15] is T4, Dual specificity protein phosphatase 6 (Rattus norvegicus, UniProt Q64346).
T4 sequence (Q64346 whole entry): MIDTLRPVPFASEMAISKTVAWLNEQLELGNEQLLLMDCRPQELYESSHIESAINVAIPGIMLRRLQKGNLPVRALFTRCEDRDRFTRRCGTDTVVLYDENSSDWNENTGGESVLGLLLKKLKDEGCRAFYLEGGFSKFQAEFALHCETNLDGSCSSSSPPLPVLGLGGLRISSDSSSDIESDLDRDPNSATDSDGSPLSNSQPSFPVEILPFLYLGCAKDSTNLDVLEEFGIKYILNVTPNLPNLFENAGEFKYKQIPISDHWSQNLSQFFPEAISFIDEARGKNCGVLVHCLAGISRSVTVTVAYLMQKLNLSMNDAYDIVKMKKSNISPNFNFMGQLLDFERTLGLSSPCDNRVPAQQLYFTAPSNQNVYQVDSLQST
Kind of test: MKP-3 phosphatase inhibitors, primary screen, biochemical, rat enzyme, in vitro (AID 425).

Activity calls are given as the source filed them. Some results are limits rather than exact numbers.

Mitogen-activated protein kinase 10, sequence (P53779 whole entry): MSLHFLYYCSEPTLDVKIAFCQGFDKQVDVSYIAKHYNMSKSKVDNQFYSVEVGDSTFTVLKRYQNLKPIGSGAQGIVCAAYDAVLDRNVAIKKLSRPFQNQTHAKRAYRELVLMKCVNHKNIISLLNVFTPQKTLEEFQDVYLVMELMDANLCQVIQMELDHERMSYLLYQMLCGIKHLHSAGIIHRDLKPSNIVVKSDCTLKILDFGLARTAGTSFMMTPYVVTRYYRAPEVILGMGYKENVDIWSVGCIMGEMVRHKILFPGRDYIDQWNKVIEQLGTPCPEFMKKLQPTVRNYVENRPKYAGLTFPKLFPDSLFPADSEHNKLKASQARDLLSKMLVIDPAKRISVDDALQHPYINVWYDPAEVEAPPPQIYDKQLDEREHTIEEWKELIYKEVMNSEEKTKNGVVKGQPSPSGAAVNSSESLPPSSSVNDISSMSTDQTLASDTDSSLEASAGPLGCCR
Voltage-gated N-type calcium channel alpha-1B subunit/Amyloid beta A4 precursor protein-binding family A member 1, sequence (Q00975 whole entry, the tested form may be a part): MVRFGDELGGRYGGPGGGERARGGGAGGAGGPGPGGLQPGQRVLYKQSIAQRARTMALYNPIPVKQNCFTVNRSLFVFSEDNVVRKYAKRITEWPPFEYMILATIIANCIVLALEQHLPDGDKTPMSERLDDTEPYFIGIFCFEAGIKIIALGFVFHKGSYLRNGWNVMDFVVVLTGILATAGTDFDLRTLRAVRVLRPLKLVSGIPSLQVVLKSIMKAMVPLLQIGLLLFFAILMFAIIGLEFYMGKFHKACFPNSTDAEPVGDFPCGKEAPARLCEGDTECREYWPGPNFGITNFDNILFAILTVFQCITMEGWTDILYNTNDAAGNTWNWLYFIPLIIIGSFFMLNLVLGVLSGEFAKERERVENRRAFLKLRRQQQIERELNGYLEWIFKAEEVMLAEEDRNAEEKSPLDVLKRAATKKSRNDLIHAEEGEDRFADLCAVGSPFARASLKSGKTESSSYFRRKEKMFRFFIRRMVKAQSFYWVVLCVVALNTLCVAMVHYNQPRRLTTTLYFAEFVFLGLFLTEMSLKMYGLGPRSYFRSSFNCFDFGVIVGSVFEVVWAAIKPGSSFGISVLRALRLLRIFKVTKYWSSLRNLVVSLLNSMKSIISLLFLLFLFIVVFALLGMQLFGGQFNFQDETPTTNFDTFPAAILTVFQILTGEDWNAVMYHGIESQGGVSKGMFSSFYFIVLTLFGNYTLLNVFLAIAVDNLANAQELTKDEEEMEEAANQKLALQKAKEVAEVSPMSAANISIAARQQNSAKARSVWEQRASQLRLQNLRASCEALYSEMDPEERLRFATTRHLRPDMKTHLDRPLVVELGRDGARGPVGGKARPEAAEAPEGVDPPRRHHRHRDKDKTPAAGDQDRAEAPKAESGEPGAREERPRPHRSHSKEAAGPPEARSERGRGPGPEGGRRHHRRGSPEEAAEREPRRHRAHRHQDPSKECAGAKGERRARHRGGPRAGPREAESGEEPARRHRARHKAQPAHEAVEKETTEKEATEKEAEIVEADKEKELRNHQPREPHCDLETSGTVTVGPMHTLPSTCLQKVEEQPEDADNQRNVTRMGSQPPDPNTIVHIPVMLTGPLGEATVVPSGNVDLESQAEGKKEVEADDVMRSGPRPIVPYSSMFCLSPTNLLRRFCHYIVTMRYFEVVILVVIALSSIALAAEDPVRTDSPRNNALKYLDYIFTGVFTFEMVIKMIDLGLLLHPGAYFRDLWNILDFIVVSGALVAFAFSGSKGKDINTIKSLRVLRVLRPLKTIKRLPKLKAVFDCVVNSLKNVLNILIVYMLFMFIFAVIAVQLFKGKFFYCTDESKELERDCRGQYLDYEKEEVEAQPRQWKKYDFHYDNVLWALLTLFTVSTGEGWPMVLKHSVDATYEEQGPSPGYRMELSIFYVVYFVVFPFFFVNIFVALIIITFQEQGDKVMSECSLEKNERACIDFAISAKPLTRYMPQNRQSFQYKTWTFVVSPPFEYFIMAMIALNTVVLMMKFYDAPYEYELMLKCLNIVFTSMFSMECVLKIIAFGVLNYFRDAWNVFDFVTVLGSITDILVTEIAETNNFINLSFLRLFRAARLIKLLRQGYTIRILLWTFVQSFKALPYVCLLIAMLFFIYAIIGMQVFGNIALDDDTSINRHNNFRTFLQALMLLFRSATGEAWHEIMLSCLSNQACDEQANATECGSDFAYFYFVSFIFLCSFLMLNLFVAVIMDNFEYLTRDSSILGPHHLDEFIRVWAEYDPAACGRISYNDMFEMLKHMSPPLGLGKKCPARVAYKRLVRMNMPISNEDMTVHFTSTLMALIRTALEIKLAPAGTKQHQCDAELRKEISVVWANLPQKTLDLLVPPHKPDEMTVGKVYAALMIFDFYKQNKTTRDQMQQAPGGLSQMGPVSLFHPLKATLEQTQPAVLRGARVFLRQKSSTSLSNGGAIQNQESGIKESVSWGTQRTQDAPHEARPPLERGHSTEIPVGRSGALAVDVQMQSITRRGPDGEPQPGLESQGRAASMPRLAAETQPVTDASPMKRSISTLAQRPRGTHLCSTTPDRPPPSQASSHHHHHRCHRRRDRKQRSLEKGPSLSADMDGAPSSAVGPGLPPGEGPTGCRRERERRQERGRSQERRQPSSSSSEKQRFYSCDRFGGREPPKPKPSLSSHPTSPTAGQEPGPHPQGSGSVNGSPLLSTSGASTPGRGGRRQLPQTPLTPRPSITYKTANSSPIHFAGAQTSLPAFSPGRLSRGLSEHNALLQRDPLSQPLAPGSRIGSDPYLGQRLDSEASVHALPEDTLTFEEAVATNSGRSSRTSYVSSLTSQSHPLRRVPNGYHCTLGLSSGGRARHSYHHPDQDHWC
Voltage-gated N-type calcium channel alpha-1B subunit/Amyloid beta A4 precursor protein-binding family A member 1, sequence (Q02410 whole entry, the tested form may be a part): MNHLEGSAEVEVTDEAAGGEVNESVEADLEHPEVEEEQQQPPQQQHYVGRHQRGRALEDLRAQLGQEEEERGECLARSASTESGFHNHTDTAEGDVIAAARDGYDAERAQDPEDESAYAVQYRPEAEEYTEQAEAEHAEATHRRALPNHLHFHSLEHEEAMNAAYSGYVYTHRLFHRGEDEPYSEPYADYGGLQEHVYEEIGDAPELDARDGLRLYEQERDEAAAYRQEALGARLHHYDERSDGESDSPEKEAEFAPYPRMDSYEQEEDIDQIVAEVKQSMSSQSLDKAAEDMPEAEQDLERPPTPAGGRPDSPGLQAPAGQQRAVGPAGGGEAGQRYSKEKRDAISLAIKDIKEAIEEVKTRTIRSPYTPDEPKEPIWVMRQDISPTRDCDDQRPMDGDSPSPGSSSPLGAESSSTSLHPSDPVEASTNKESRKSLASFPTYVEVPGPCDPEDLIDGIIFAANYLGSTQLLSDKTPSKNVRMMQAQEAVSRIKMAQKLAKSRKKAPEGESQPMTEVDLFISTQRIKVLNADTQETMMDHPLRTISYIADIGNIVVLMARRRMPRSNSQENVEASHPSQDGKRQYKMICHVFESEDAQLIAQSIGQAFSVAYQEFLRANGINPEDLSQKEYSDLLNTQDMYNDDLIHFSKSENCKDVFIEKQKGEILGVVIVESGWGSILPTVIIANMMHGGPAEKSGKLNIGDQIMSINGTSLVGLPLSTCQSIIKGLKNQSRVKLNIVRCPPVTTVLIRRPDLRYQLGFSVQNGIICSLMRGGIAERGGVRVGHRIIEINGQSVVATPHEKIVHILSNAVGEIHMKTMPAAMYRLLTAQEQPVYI

Regarding `Cc1ccsc1C(=O)Nc1ccc(F)cc1`, the concentration for half-maximal inhibition (IC50) in [1] is recorded as > 30 µM (not active).
Regarding `CCC(C)[C@H](N)c1nnc(SCC(=O)c2ccc(Cl)cc2)o1` (stereo not given in full), the IC50 in [2] was > 80 µM (inactive).
For the compound `O=C1c2cnc3nc(SCc4ccccc4)nn3c2CC2c3ccccc3CCN12` (stereo not given), the 50% effective concentration (EC50) in test [3] is reported as > 120 µM (not active).
`Cc1ccc(NC(=O)/C(=C/c2cccc([N+](=O)[O-])c2)NC(=O)C2CCCCC2)c(C)c1`: on Estrogen receptor, the IC50 is recorded as > 50 µM (not active). For the same compound, in test [3], the concentration giving a half-maximal response (EC50) is given as > 120 µM (not active). Also, the AC50 in the test on Escherichia coli is 62.4 µM (active).
As for `FC(F)(F)c1cnc2c(-c3cccs3)csc2c1`, the IC50 in test [1] is > 30 µM (not active).
In the case of `Cc1ccc(S(=O)(=O)CCC(=O)Nc2ccc3c(c2)OCO3)cc1`, the IC50 in test [4] was > 100 µM (active).
`CCN(CC)c1ccc(C2C3CCCCC3(O)CCN2CC(=O)Nc2ccccc2)cc1` (stereo not given): in test [4], the half-inhibitory concentration (IC50) was > 100 µM (active).
Consider `CC(NCC#Cc1ccccc1)C(O)c1ccccc1` (stereo not given), for which, on Galanin receptor type 3, the IC50 was > 29.9 µM (inactive). For the same compound, the EC50 in the test “cells” was > 29.9 µM (inactive).
For the compound `CCN(CC)S(=O)(=O)c1cc(NC(=O)CNc2cccc(S(=O)(=O)N3CCOCC3)c2)ccc1C`, the AC50 was 2.97 µM (active) in test [5], 1.89 µM (active) in test [6] and 2.17 µM (active) in test [7]. At Galanin receptor type 3, the 50% inhibitory concentration (IC50) was 0.449 µM (active). Also, the EC50 in “cells” was > 29.9 µM (inactive).
Turning to `O=C(Nc1cccc(Oc2ccc3c(c2)C(=O)NC3=O)c1)c1cccs1`, in [2], the IC50 is > 80 µM (inactive).
With `CCN1CCCC1CNc1[nH]cnc2c3cc(F)ccc3nc1-2` (stereo not given), the AC50 in test [8] was > 20 µM (inactive).
On to `CCCc1nc(SCC(=O)N2CCCC2)c2ccccc2n1`, for which, in test [9], the 50% inhibitory concentration (IC50) was 50.4 µM (not active).
As to `COc1ccccc1NC(=O)COc1ccc(CO)cc1Cl`, the IC50 in test [9] was 68.6 µM (not active).
Take `O=C(Oc1coc(CSc2ncccn2)cc1=O)c1ccc(Br)o1`: the EC50 in test [3] was > 120 µM (not active).
For `O=C(Nc1ccc(F)cc1)c1cc(-c2cccs2)nc2ccccc12`, in test [1], the 50% inhibitory concentration (IC50) was > 30 µM (not active).
In the case of `C[C@H](CO)N1C[C@H](C)[C@@H](CN(C)C(=O)Nc2ccc3c(c2)OCO3)Oc2c(cccc2N(C)C)C1=O`, the AC50 in test [10] is > 52 µM (inactive).
On to `COC(=O)C1=C(C)N(Cc2ccccc2)C(=S)NC1c1cccc(Br)c1` (stereo not given), for which the AC50 in the test on Cryptococcus neoformans was 36.5 µM (active); in the test with HEK293, 33.6 µM (active); in [11], 33.6 µM (active).
For the compound `O=C(Nc1ccccc1)N1CCCCN2[C@H](CO)[C@@H](c3ccc(C#CC4CC4)cc3)[C@@H]2C1`, the figures for the AC50 (in the test on HeLa; with HEK293; in test [11]) were > 52 µM (inactive), 14.4 µM (active) and 14.4 µM (active), respectively.
Consider `O=C(N/N=C/c1ccc([N+](=O)[O-])cc1)c1cc(-c2ccc3c(c2)OCO3)[nH]n1`, for which, in test [12], the IC50 is 7.27 µM (active).
For the compound `CC1CN(S(=O)(=O)c2ccc(NC(=O)c3cc(-c4ccccc4O)n[nH]3)cc2)CC(C)O1` (stereo not given), the IC50 in [13] and in test [14] was > 69.5 µM (inactive) throughout.
In the case of `O=C(O)C(O)c1ccco1` (stereo not given), the IC50 at Estrogen receptor was > 50 µM (not active); against Estrogen receptor beta, 3.23 µM (not active); in [15] it was 3.73 µM (active).
